Test results: PMC12563681, “Cecytb-2, a Cytochrome b561 Homolog, Functions as an Ascorbate-Specific Transmembrane Ferric Reductase at Intestinal Lumens of Caenorhabditis elegans” (Biomolecules, 2025)

Legend:
Cecytb-2 (Cecytb-2-H6) [1] = target: T1, Cecytb-2 (Cecytb-2-H6) (Caenorhabditis elegans, UniProt O16271); experiment: pulse radiolysis, heme oxidation at […] nm; parameters: gene CELE_F39G3.5; conditions: electron acceptor; 10 mM AsA present, pH 7.0, 1% octyl glucoside
T1 sequence (O16271 1-251): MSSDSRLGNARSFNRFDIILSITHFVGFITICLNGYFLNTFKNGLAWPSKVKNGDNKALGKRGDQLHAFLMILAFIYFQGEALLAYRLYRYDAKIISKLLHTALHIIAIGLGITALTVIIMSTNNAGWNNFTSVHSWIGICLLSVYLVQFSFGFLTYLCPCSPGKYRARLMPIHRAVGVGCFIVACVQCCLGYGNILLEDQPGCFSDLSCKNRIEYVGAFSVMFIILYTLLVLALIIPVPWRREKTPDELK

Cecytb-2 (Cecytb-2-H6) [2] = target: T1, Cecytb-2 (Cecytb-2-H6); experiment: stopped-flow heme reduction at […] nm; type: biochemical; parameters: gene CELE_F39G3.5; full length, 251 residues, 28,127 Da native; expressed in Pichia pastoris GS115, purified from microsomes in octyl glucoside; Ser2, Ser3 at N-terminus; two b hemes; conditions: electron donor; pH 7.0, 1% octyl glucoside, about 25 °C

| Compound | pulse radiolysis, heme oxidation at 435 nm (Cecytb-2 (Cecytb-2-H6) [1]) | stopped-flow heme reduction at 426 nm (Cecytb-2 (Cecytb-2-H6) [2]) |
| --- | --- | --- |
| [O]C1=C(O)[C@@H]([C@@H](O)CO)OC1=O [MDA radical] | heme oxidation of Cecytb-2-H6 by the generated MDA radical |  |
| O=C1O[C@H]([C@@H](O)CO)C(O)=C1O [AsA] |  | second-order rate constant (k1) for the heme reduction with AsA was estimated |
